The text below walks through data of publication PMC10385865, “Synthesis and Anticancer Activity of Novel Dual Inhibitors of Human Protein Kinases CK2 and PIM-1” (Pharmaceutics, 2023).

In experiment [1] the target is T1, human CK2 holoenzyme (CK2α2β2) (Homo sapiens, UniProt P68400).
T1 construct: made in house
Briefly: P81 filter isotopic (radiometric) kinase assay, CK2 holoenzyme. The experiment is classed as biochemical. To be noted: substrate peptide […], Ki from IC50 by Cheng–Prusoff. How it is done: (§1) The obtained compounds were tested for their inhibitory activity toward human CK2α, human CK2 holoenzyme, and PIM-1 using a P81 filter isotopic assay as described previously. […] The experimental data were fitted to the sigmoidal dose–response equation, i.e., (variable slope) Y = Bottom + (Top-Bottom)/(1 + 10^((LogIC50−X)∗HillSlope), in GraphPad Prism (Prism 9, v. 9.0.1).
(§2) Inhibition of the human CK2 catalytic subunit (CK2α), CK2 holoenzyme (CK2α2β2), and PIM-1 by the newly obtained compounds was evaluated using a radiometric assay (Table 1, Figure S2). The synthetic peptide […] was used as the substrate of CK2, and peptide […] was used as the substrate of PIM-1. The values of the inhibition constant (Ki) were calculated using the Cheng–Prusoff equation: Ki = IC50/(1 + [S]/Km).

In experiment [2] the target is T2, human CK2α (Homo sapiens, UniProt P68400).
T2 construct: made in house
In words: P81 filter isotopic (radiometric) kinase assay, CK2 catalytic subunit. It counts as biochemical. To be noted: substrate peptide […], Ki from IC50 by Cheng–Prusoff. How it is done:
as §1, §2

Experiment [3] deals with CCRF-CEM cells. In words: Mitochondrial membrane potential (ΔΨm) assay, JC-1, flow cytometry. It counts as cell-based, human. The note with it: 10 µM, 48 h. The protocol: Mitochondrial membrane potential was assessed by flow cytometry using 5,5′,6,6′-tetrachloro-1,1′,3,3′-tetraethylbenzimidazolocarbocyanine iodide (JC-1; Sigma-Aldrich, St. Louis, MO, USA). JC-1 undergoes potential-dependent accumulation in mitochondria. In healthy cells, the dye accumulates in mitochondria, forming aggregates with red fluorescence (FL-2 channel), whereas in dead and apoptotic cells, the dye remains in the cytoplasm in a monomeric form and emits green fluorescence (FL-1 channel). Cells were harvested by centrifugation 48 h post treatment, suspended in 1 mL of complete culture medium at approximately 1 × 10^6 cells/mL, and incubated with 2.5 µL of JC-1 solution in DMSO (1 mg/mL) for 15 min at 37 °C in the dark. The stained cells were then washed with cold PBS, suspended in 400 µL of PBS, and examined by flow cytometry.
The most significant effect, i.e., 45% of cells with reduced ΔΨm, was obtained in cells treated with 10 µM conc. of rac-6.

In experiment [4] the test system is phosphorylation of Ser112 in BAD (marker of PIM-1 activity), CCRF-CEM. Briefly: Western blot/densitometry, intracellular PIM-1 inhibition, CCRF-CEM. It counts as cell-based, human. To be noted: 48 h. The protocol: (§3) All the procedures are described in detail in Supplementary Materials (Section S3.3). The protein concentration was determined using a Bradford assay.
(§4) For densitometry, immunoblots were scanned using G Box Chemi (Syngene, Cambridge, UK), and the density of each lane of phosphorylated and total protein was quantified using GeneSys software (Syngene, Cambridge, UK). Phosphorylated protein densities were normalized to GAPDH densities, assuming 1 for untreated cells; then, they were converted to a percentage of the appropriate control.
(§5) The data obtained for p65 confirmed the intracellular inhibition of CK2 by the tested compounds in all the studied cell lines in a dose-dependent manner. […] Otherwise, Western blot data for BAD (a marker of PIM-1 activity) indicated inhibition of PIM-1 only in MCF-7 cells, with the most significant reduction in phosphorylated BAD in cells treated with 10 µM conc. of rac-6 (0.49 of control) (Figure 8b). Unexpectedly, the relative level of BAD-P in the drug-treated CCRF-CEM and K-562 cells was even higher than in control cells.
(§6) The following primary antibodies were used: anti-GAPDH (Millipore, St. Louis, MO, USA; […]
(§7) overnight, +4°C); anti-BAD (Apoptosis I Sampler Kit, # 612741, BD Biosciences, San Diego, CA, USA; 1:1000, overnight, +4°C), anti-phospho-BAD-Ser112 (CST, Beverly, MA, USA; 9291S, 1:500 overnight, +4°C). […]

The subject of experiment [5] is phosphorylation of Ser112 in BAD (marker of PIM-1 activity), MCF-7. In words: Western blot/densitometry, intracellular PIM-1 inhibition, MCF-7. The experiment is classed as cell-based, human. To be noted: MCF-7, 10 µM, 48 h, densitometry. The protocol: as §3, §4, §5, §6, §7
(In general: Immunoblotting shows a protein as a band on a membrane.)

T2 sequence (P68400 whole entry): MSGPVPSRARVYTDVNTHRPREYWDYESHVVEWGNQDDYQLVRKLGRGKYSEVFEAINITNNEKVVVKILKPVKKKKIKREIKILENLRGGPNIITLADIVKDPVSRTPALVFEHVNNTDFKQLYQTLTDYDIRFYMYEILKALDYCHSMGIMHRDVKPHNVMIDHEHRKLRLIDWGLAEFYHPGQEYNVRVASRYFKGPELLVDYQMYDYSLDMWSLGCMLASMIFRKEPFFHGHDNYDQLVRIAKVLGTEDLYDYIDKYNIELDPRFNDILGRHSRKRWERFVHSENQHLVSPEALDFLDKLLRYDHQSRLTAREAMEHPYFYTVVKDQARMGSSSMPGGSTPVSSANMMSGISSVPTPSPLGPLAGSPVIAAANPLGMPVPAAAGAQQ
T1 sequence (P68400 whole entry): as above
T1 sequence (P67870 whole entry partner): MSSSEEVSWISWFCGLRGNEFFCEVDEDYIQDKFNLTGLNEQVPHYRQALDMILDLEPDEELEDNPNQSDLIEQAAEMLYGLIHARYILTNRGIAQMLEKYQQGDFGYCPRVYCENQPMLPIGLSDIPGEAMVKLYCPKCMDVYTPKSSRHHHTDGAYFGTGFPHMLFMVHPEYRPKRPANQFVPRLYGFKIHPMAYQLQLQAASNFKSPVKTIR

Broadly, the Ki is a dissociation constant, usually derived from enzyme kinetics or from competition with a known ligand. A lower Ki goes with a stronger hold on the target. With `OC(CNc1nc2c(Br)c(Br)c(Br)c(Br)c2[nH]1)C(F)(F)F` (racemic) [rac-6, 1,1,1-Trifluoro-3-[(4,5,6,7-tetrabromo-1H-benzimidazol-2-yl)amino]propan-2-ol], the inhibition constant Ki stood at 0.112 µM in experiment [1] and 0.294 µM in experiment [2]. The “cells with reduced ΔΨm” value in experiment [3] is given as 45%. In experiment [4], the “level of phosphorylated BAD (in words)” value is “increased level of phosphorylated BAD”. Moreover, the “phosphorylated BAD, relative level” value in experiment [5] is on record as 0.49 of control.
